Results from BindingDB's records for doi:10.1021/jm0703035 (Research Triangle Institute, 2007).

Tests used:
Transporter = Transporter (Rattus norvegicus, UniProt Q63380); assay: Ligand Binding Assay
Method: Brains from male Sprague-Dawley rats were removed, dissected, and rapidly frozen. Ligand binding experiments were conducted in assay tubes containing radioligand, rat membrane tissue, and test compounds. Incubations were terminated by filtration with through GF/B filters. Results were analyzed using the Equilibrium Binding Data Analysis software (EBDA, Biosoft).

[1] = target: Sodium-dependent noradrenaline transporter (Homo sapiens, UniProt P23975); assay: Ligand Binding Assay
Sodium-dependent noradrenaline transporter, sequence (P23975 whole entry): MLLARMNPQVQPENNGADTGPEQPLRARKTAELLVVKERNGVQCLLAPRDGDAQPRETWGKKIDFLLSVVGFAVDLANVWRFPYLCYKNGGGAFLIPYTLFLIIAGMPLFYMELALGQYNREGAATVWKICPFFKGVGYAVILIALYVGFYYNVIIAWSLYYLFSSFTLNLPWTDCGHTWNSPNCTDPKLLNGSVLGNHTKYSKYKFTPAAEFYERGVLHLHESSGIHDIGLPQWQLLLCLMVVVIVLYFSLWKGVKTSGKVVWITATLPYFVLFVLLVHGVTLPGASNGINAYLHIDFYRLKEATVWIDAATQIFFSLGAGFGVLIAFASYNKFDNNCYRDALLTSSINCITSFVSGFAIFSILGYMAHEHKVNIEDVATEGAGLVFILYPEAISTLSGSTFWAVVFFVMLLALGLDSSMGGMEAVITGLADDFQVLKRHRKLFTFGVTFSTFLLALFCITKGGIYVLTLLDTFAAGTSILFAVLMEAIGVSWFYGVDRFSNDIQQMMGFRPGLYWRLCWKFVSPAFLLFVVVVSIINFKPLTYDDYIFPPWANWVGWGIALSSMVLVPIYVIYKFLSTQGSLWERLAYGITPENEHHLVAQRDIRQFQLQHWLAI

Transporter, sequence (Q63380 whole entry): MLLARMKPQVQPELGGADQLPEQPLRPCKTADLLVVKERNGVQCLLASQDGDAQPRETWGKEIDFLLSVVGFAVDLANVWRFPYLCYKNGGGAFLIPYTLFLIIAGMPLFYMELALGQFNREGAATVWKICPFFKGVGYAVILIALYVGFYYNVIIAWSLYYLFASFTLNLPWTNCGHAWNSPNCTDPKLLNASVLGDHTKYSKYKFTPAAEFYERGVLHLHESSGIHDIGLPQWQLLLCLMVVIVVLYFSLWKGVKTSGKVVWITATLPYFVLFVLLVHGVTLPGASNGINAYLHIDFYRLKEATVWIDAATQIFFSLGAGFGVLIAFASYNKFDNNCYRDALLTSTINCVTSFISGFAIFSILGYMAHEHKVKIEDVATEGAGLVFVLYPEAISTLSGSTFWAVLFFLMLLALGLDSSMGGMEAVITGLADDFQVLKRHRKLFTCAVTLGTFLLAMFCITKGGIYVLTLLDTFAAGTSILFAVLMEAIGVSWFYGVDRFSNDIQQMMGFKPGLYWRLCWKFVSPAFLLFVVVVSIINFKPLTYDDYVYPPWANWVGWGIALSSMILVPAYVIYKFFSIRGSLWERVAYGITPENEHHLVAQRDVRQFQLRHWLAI

| SMILES | Ki (Transporter) [nM] | EC50 [1] [nM] |
| --- | --- | --- |
| CN1[C@H]2CC[C@@H]1[C@@H](c1ncc(-c3ccc(Cl)c(Cl)c3)s1)[C@@H](c1ccc(Cl)cc1)C2 [2-[(1R,2S,3S,5S)-3-(4-chlorophenyl)-8-methyl-8-azabicyclo[3.2.1]octan-2-yl]-5-(3,4-dichlorophenyl)-1,3-thiazole] | > 2000 |  |
| COc1ccc(-c2cnc([C@H]3[C@@H](c4ccc(Cl)cc4)C[C@@H]4CC[C@H]3N4C)s2)cc1OC [2-[(1R,2S,3S,5S)-3-(4-chlorophenyl)-8-methyl-8-azabicyclo[3.2.1]octan-2-yl]-5-(3,4-dimethoxyphenyl)-1,3-thiazole] | > 2000 |  |
| CN1[C@H]2CC[C@@H]1[C@@H](c1ncc(-c3cccc([N+](=O)[O-])c3)s1)[C@@H](c1ccc(Cl)cc1)C2 [2-[(1R,2S,3S,5S)-3-(4-chlorophenyl)-8-methyl-8-azabicyclo[3.2.1]octan-2-yl]-5-(3-nitrophenyl)-1,3-thiazole] | > 2000 |  |
| CN1[C@H]2CC[C@@H]1[C@@H](c1ncc(-c3ccc(F)cc3)s1)[C@@H](c1ccc(Cl)cc1)C2 [2-[(1R,2S,3S,5S)-3-(4-chlorophenyl)-8-methyl-8-azabicyclo[3.2.1]octan-2-yl]-5-(4-fluorophenyl)-1,3-thiazole] | > 2000 |  |
| COc1ccc(-c2cnc([C@H]3[C@@H](c4ccc(Cl)cc4)C[C@@H]4CC[C@H]3N4C)s2)cc1 [2-[(1R,2S,3S,5S)-3-(4-chlorophenyl)-8-methyl-8-azabicyclo[3.2.1]octan-2-yl]-5-(4-methoxyphenyl)-1,3-thiazole] | > 2000 |  |
| CN1[C@H]2CC[C@@H]1[C@@H](c1ncc(-c3ccc([N+](=O)[O-])cc3)s1)[C@@H](c1ccc(Cl)cc1)C2 [2-[(1R,2S,3S,5S)-3-(4-chlorophenyl)-8-methyl-8-azabicyclo[3.2.1]octan-2-yl]-5-(4-nitrophenyl)-1,3-thiazole] | > 2000 |  |
| CN1[C@H]2CC[C@@H]1[C@@H](c1ncc(-c3ccccc3)s1)[C@@H](c1ccc(Cl)cc1)C2 [2-[(1R,2S,3S,5S)-3-(4-chlorophenyl)-8-methyl-8-azabicyclo[3.2.1]octan-2-yl]-5-phenyl-1,3-thiazole] |  | 750 |
| Cc1ccc([C@H]2C[C@@H]3CC[C@H]([C@H]2c2ncc(-c4cccc([N+](=O)[O-])c4)s2)N3C)cc1 [2-[(1R,2S,3S,5S)-8-methyl-3-(4-methylphenyl)-8-azabicyclo[3.2.1]octan-2-yl]-5-(3-nitrophenyl)-1,3-thiazole] | > 4300 |  |
| Cc1ccc([C@H]2C[C@@H]3CC[C@H]([C@H]2c2ncc(-c4ccc([N+](=O)[O-])cc4)s2)N3C)cc1 [2-[(1R,2S,3S,5S)-8-methyl-3-(4-methylphenyl)-8-azabicyclo[3.2.1]octan-2-yl]-5-(4-nitrophenyl)-1,3-thiazole] | > 2000 |  |
| Cc1ccc([C@H]2C[C@@H]3CC[C@H]([C@H]2c2ncc(-c4ccc(Cl)c(Cl)c4)s2)N3C)cc1 [5-(3,4-dichlorophenyl)-2-[(1R,2S,3S,5S)-8-methyl-3-(4-methylphenyl)-8-azabicyclo[3.2.1]octan-2-yl]-1,3-thiazole] | > 2000 | 4000 |
| COc1ccc(-c2cnc([C@H]3[C@@H](c4ccc(C)cc4)C[C@@H]4CC[C@H]3N4C)s2)cc1OC [5-(3,4-dimethoxyphenyl)-2-[(1R,2S,3S,5S)-8-methyl-3-(4-methylphenyl)-8-azabicyclo[3.2.1]octan-2-yl]-1,3-thiazole] | > 2000 |  |
| CN1[C@H]2CC[C@@H]1[C@@H](c1ncc(-c3cccc(Br)c3)s1)[C@@H](c1ccc(Cl)cc1)C2 [5-(3-bromophenyl)-2-[(1R,2S,3S,5S)-3-(4-chlorophenyl)-8-methyl-8-azabicyclo[3.2.1]octan-2-yl]-1,3-thiazole] | > 2000 |  |
| Cc1ccc([C@H]2C[C@@H]3CC[C@H]([C@H]2c2ncc(-c4cccc(Br)c4)s2)N3C)cc1 [5-(3-bromophenyl)-2-[(1R,2S,3S,5S)-8-methyl-3-(4-methylphenyl)-8-azabicyclo[3.2.1]octan-2-yl]-1,3-thiazole] | > 2000 |  |
| CN1[C@H]2CC[C@@H]1[C@@H](c1ncc(-c3ccc(Br)cc3)s1)[C@@H](c1ccc(Cl)cc1)C2 [5-(4-bromophenyl)-2-[(1R,2S,3S,5S)-3-(4-chlorophenyl)-8-methyl-8-azabicyclo[3.2.1]octan-2-yl]-1,3-thiazole] | > 2000 |  |
| CN1[C@H]2CC[C@@H]1[C@@H](c1ncc(-c3ccc(Cl)cc3)s1)[C@@H](c1ccc(Cl)cc1)C2 [5-(4-chlorophenyl)-2-[(1R,2S,3S,5S)-3-(4-chlorophenyl)-8-methyl-8-azabicyclo[3.2.1]octan-2-yl]-1,3-thiazole] | > 2000 |  |
| Cc1ccc([C@H]2C[C@@H]3CC[C@H]([C@H]2c2ncc(-c4ccc(Cl)cc4)s2)N3C)cc1 [5-(4-chlorophenyl)-2-[(1R,2S,3S,5S)-8-methyl-3-(4-methylphenyl)-8-azabicyclo[3.2.1]octan-2-yl]-1,3-thiazole] | > 2000 |  |
| Cc1ccc([C@H]2C[C@@H]3CC[C@H]([C@H]2c2ncc(-c4ccc(F)cc4)s2)N3C)cc1 [5-(4-fluorophenyl)-2-[(1R,2S,3S,5S)-8-methyl-3-(4-methylphenyl)-8-azabicyclo[3.2.1]octan-2-yl]-1,3-thiazole] | > 2000 |  |
| COc1ccc(-c2cnc([C@H]3[C@@H](c4ccc(C)cc4)C[C@@H]4CC[C@H]3N4C)s2)cc1 [5-(4-methoxyphenyl)-2-[(1R,2S,3S,5S)-8-methyl-3-(4-methylphenyl)-8-azabicyclo[3.2.1]octan-2-yl]-1,3-thiazole] | > 2000 | 1810 |
